Here are results for 18 compounds from US12286401B2, “Small molecules that sensitize HIV-1 infected cells to antibody dependent cellular cytotoxicity” (THE TRUSTEES OF THE UNIVERSITY OF PENNSYLVANIA, priority 2018, dated 2025).

Structures are written as SMILES.

Assay [1] concerns CH58TF infected primary CD4+ T-cells. Description: Recognition of HIV-1 infected cells by 17b (flow cytometry cell-surface staining). It counts as cell-based. The conditions noted are these: Human immunodeficiency virus 1, T-cell, read-out: Fold Over DMSO (17b, n = 1). How it is done:
(§1) Cell-surface staining of primary CD4+ T cells from healthy HIV uninfected individuals or CEM-NKr cells is performed, as described in Prevost, “Influence of the Envelope gp120 Phe 43 Cavity on HIV-1 Sensitivity to Antibody-Dependent Cell-Mediated Cytotoxicity Responses,” 2017, J. Virol 91; Richard, “CD4 mimetics sensitize HIV-1-infected cells to ADCC,” 2015, Proc. Natl. Acad. Sci. USA, 112:E2687-2694; Richard, “Small CD4 Mimetics Prevent HIV-1 Uninfected Bystander CD4+ T Cell Killing Mediated by Antibody-dependent Cell-mediated Cytotoxicity,” 2016, EBioMedicine 3:122-134; Veillette, “The HIV-1 gp120 CD4-Bound Conformation Is Preferentially Targeted by Antibody-Dependent Cellular Cytotoxicity-Mediating Antibodies in Sera from HIV-1-Infected Individuals,” 2015, J. Virol., 89:545-551; Veillette, “Interaction with cellular CD4 exposes HIV-1 envelope epitopes targeted by antibody-dependent cell-mediated cytotoxicity,” 2014, J. Virol., 88:2633-2644; Richard, “Uninfected Bystander Cells Impact the Measurement of HIV-Specific Antibody-Dependent Cellular Cytotoxicity Responses,” 2018, MBio. 9(2): e00358-18; Richard, “BST-2 Expression Modulates Small CD4-Mimetic Sensitization of HIV-1-Infected Cells to Antibody-Dependent Cellular Cytotoxicity,” 2017, J. Virol. 91(11):e00219-17. Binding of HIV-1 infected cells by HIV+ sera (1:1000 dilution) or anti-Env Abs (such as 17b) is performed […] in vitro infection at 37° C. in presence of different concentrations of the MCG analogs or with equivalent volume of vehicle (DMSO). Cells infected with HIV-1 primary isolates are stained intracellularly for HIV-1 p24 using the Cytofix/Cytoperm Fixation/Permeabilization Kit (BD Biosciences, Mississauga, ON, Canada) and then fluorescent anti-p24 mAb (PE-anti-p24, clone KC57; Beckman Coulter/Immunotech, Hialeah, FL) (1:100 final concentration). The percentage of infected cells (p24^+ or GFP+ cells) is determined by gating the living cell population based on the viability dye staining. Samples are analyzed on an LSRII cytometer (BD Biosciences, Mississauga, ON, Canada) and data analysis is performed using FlowJo vX0.7 (Tree Star, Ashland, OR, USA).
(§2) Briefly, Primary CD4 T cells isolated from PBMC were infected with HIV-1CH58TF for 48 hours. For cell surface staining, 5 μg/ml 17b (FIG. 15A) or 1:1000 diluted HIV+ plasma (n=15) (FIG. 15B) were used in the presence of the different MCG analogs (50 μM), (+)-BNM-III-170 or with an equivalent volume of vehicle (DMSO). An Alexa Fluor 647-conjugated anti-human IgG secondary Ab was then used for fluorescent labeling. For ADCC (FIG. 15C), infected cells were used as target cells in a FACS-based ADCC assay that measures the killing of infected (p24+ cells). See, Madani, 2016, J. Virol., 90:5031-5046. The assay determines susceptibility to ADCC mediated by a 1/1,000 dilution of plasma from 15 HIV-1-infected individuals in the presence of the different MCG analogs (50 μM), (+)-BNM-III-170 (50 μM) or with an equivalent volume of vehicle (DMSO). Correlation between cell-surface staining with HIV+ plasma and ADCC was calculated using the Spearman rank correlation (FIG. 15D).
In general terms: A flow cytometer gives signals particle by particle.

The test system is the same in assay [2]. Description: HIV+ patient sera/plasma recognition of CH58TF infected primary CD4+ T-cells (flow cytometry cell-surface staining). It counts as cell-based, HIV-1. The conditions noted are these: Human immunodeficiency virus 1, T-cell, read-out: Fold Over DMSO (patient sera, n = 3). How it is done:
as §1
HIV+ Patient Sera (n=3) Recognition of CH58TF Infected Primary CD4+ T-Cells
Staining with patient sera and 50 μM of compounds given as a fold change over DMSO (vehicle).
as §2

The test system of assay [3] is HIV-1JR-FL EnvΔCT expressed at the surface of HOS cells. The assay is described as follows: Cell-based ELISA (CBE), 17b readout. To be noted: MCG analogs 50 μM; BNM-III-170 5 μM; 2G12 and DMSO normalized. How it is done: Detection of trimeric HIV-1 Env at the surface of HOS cells was performed by cell-based ELISA, as described in Desormeaux, “The highly conserved layer-3 component of the HIV-1 gp120 inner domain is critical for CD4-required conformational transitions,” J. Virol. 87:2549-2562; Alsahafi, “Effects of the I559P gp41 change on the conformation and function of the human immunodeficiency virus (HIV-1) membrane envelope glycoprotein trimer,” 2015, PLoS One 10:e0122111; and Veillette, “Conformational evaluation of HIV-1 trimeric envelope glycoproteins using a cell-based ELISA assay,” 2014, J. Vis. Exp., 91:51995. To enhance cell-surface expression of HIV-1 EnvRF a stop codon was introduced to replace the codon for Gly 711, truncating the cytoplasmic tail (ACT). Briefly, HOS cells were seeded in T-75 flasks (3×10^6 cells per flask) and transfected the next day with 22.5 μg of Env-expressing plasmids (wild-type and mutants S375W, S375T, H66A, A582T/L587A, etc) using the standard polyethylenimine (PEI, Polyscience Inc, PA, USA) transfection method. Twenty-four hours after transfection, cells were plated in 384-wells plates (2×10^4 cells per well). One day later, cells were washed twice with blocking buffer (10 mg/mL non-fat dry milk, 1.8 mM CaCl2), 1 mM MgCl2, 25 mM Tris, pH 7.5 and 140 mM NaCl) and then incubated for 30 minutes at room temperature with different concentrations of MCG analogs or equivalent volume of vehicle (DMSO). Cells were then incubated for an additional 1 h at room temperature with anti-HIV-1 Env monoclonal antibodies recognizing CD4-induced gp120 epitopes (17b, A32), CD4-binding site gp120 epitopes (VRC03, VRC01, F105, and b12), gp120 V3 glycans (19b, PGT126, PGT122, and 10.1074), gp120 outer domain (2G12), and gp120-gp41 interface (PGT151 and VRC34) epitopes. All ligands were diluted in blocking buffer. A horseradish peroxidase-conjugated antibody specific for the Fc region of human or mouse IgG (Pierce) was then incubated with the samples for 45 minutes at room temperature. For all conditions, cells were washed 5 times with blocking buffer and 5 times with washing buffer (1.8 mM CaCl2), 1 mM MgCl2, 25 mM Tris, pH 7.5 and 140 mM NaCl). HRP enzyme activity was determined after the addition of 20 μl per well of a 1:1 mix of Western Lightning oxidizing and luminol reagents (Perkin Elmer Life Sciences). Light emission was measured with an LB 941 TriStar luminometer (Berthold Technologies) and analysis with Graph Pad software.
The data of Table 2 is given as the fold over BNM-III-170 (5 μM) of Cell-Based ELISA with MCG Analogs (50 μM)—17b readout, 2G12 and DMSO normalized.
To identify molecules able to expose vulnerable Env epitopes, a cell-based ELISA (CBE) assay was adapted, capable of measuring conformational changes of membrane-bound trimeric Env as described in Veillette, 2014, J. Vis. Exp. doi:10.3791/51995:51995; Haim, 2011, PLoS Pathog 7:e1002101, into a high-throughput screening (HTS) platform (FIG. 10A). Briefly, the cytoplasmic-tail deleted HIV-1JR-FL Tier-2/3 Env was expressed on the surface of HOS cells in a 384-well-plate format. The cytoplasmic tail of Env was deleted to enhance Env expression at the cell surface and therefore enhance the sensitivity of the CBE assay. See, Veilette and Haim, 2009, PLoS Pathog 5:e100036. Small molecules or, as a positive control, soluble (sCD4) were added to expose the HIV-1JR-FL EnvΔCT epitope that can be recognized by the CD4i antibody 17b. See, Wyatt, 1995, J. Virol. 69:5723-5733; Rizzuto, 1998, Science 280:1949-1953.
17b binding was detected by a horseradish peroxidase-conjugated (HRP) second antibody, and HRP enzyme activity was measured by Western Lightning oxidizing and luminal reagents. 17b binding in the presence of sCD4 was set as the control (FIG. 10B, blue dots), small molecules that enhanced 17b binding above 25% of the one induced by sCD4 were retested in quadruplicate and only one molecule (UM0059920) was deemed a true positive (FIG. 10B, red dots). […]
For orientation: ELISA stands for enzyme-linked immunosorbent assay.

In the case of `O=C(Nc1ccc(Br)c(Cl)c1)[C@H]1CCCN(S(=O)(=O)c2ccccc2)C1` [(S)-MCG-III-085-D06], the fold induction at 50 µM stood at 6.46 in assay [1] and 2 in assay [2]. Moreover, the “Fold over BNM-III-170 - 17b binding (±0.05)” value (“Fold … (±0.05)” for short) in assay [3] is recorded as 0.19 fold.

For the compound `Cn1cnc(S(=O)(=O)N2CC(C(=O)Nc3ccc(Cl)c(F)c3)Cc3ccccc32)c1` (centres unmarked) [MCG-III-214-A04], the fold induction at 50 µM in assay [1] turned out to be 1.15; in assay [2], 0.924. In assay [3], the “Fold … (±0.05)” value is given as 0.18 fold.

With `O=C(Nc1ccc(Cl)c(F)c1)C1Cc2ccccc2N(S(=O)(=O)c2ccccc2)C1` (centres unmarked) [MCG-III-214-A03], the fold induction at 50 µM in assay [1] was determined as 0.911; in assay [2] it was 1.05. In addition, in assay [3], the “Fold … (±0.05)” value stood at 0.09 fold.

As to `CC(=O)Nc1ccc(S(=O)(=O)N2CCC[C@H](C(=O)Nc3ccc(Cl)c(F)c3)C2)cc1` [(S)-MCG-III-117], the fold induction at 50 µM in assay [2] came out at 1.89. For the same compound, in assay [3], the “Fold … (±0.05)” value stood at 0.21 fold.

In the case of `O=C(Nc1ccc(Cl)c(Br)c1)[C@H]1CCCN(S(=O)(=O)c2ccccc2)C1` [(S)-MCG-III-085-D05], the fold induction at 50 µM turned out to be 5.58 in assay [1] and 1.55 in assay [2]. Moreover, the “Fold … (±0.05)” value in assay [3] is 0.10 fold.

In the case of `O=C(Nc1ccc(Cl)c(F)c1)[C@H]1CCCN(S(=O)(=O)c2ccc(Br)cc2)C1` [(S)-MCG-III-128], in assay [2], the fold induction at 50 µM was determined as 1.07. Further, the “Fold … (±0.05)” value in assay [3] amounted to 0.21 fold.

As to `N#Cc1ccc(S(=O)(=O)N2CCC[C@H](C(=O)Nc3ccc(Cl)c(F)c3)C2)cc1` [(S)-MCG-III-116-A06], the fold induction at 50 µM in assay [2] stood at 1.15. For the same compound, the “Fold … (±0.05)” value in assay [3] is listed as 0.31 fold.

In the case of `O=C(Nc1ccc(Cl)c(Cl)c1)[C@H]1CCCN(S(=O)(=O)c2ccccc2)C1` [(S)-MCG-III-085-D03], the fold induction at 50 µM in assay [1] came to 4.87; in assay [2], 2.03. Moreover, the “Fold … (±0.05)” value in assay [3] is given as 0.20 fold.

Turning to `CCS(=O)(=O)N1CCC[C@H](C(=O)Nc2ccc(Br)c(Cl)c2)C1` [(S)-MCG-III-085-C06], the fold induction at 50 µM in assay [1] worked out at 3.1; in assay [2], 1.28. Moreover, the “Fold … (±0.05)” value in assay [3] turned out to be 0.34 fold.

For `COc1ccc(S(=O)(=O)N2CCC[C@H](C(=O)Nc3ccc(Cl)c(F)c3)C2)cc1` [(S)-MCG-III-116-A05], the fold induction at 50 µM in assay [2] turned out to be 1.1. The “Fold … (±0.05)” value in assay [3] is recorded as 0.29 fold.

As for `O=C(Nc1ccc(Cl)c(F)c1)[C@H]1CCCN(C(=O)Oc2ccccc2)C1` [(S)-MCG-III-188-A03], the fold induction at 50 µM in assay [1] worked out at 3.11; in assay [2], 4.61. The “Fold … (±0.05)” value in assay [3] was 0.47 fold.

For `O=C(Nc1ccc(Cl)c(F)c1)C1CCN(S(=O)(=O)c2ccccc2)C1` (centres unmarked) [MCG-III-157-A03], the fold induction at 50 µM in assay [2] was determined as 1.57. Besides, the “Fold … (±0.05)” value in assay [3] turned out to be 0.33 fold.

Turning to `CC(C)(C)OC(=O)N1CCN(S(=O)(=O)c2ccccc2)CC1C(=O)Nc1ccc(Cl)c(F)c1` (centres unmarked) [MCG-III-212-A03], the fold induction at 50 µM in assay [1] is 1.1; in assay [2], 1.24. Further, the “Fold … (±0.05)” value in assay [3] turned out to be 0.06 fold.

With `CCS(=O)(=O)N1CCCC(C(=O)Nc2ccc(Cl)c(F)c2)C1` (centres unmarked) [MCG-III-157-B02], the fold induction at 50 µM in assay [2] was determined as 2.62. In assay [3], the “Fold … (±0.05)” value came to 0.68 fold.

With `CS(=O)(=O)N1CCCC(NC(=O)c2ccc(Cl)c(F)c2)C1` (centres unmarked) [MCG-III-157-C01], in assay [2], the fold induction at 50 µM is 1.04. In addition, the “Fold … (±0.05)” value in assay [3] is on record as 0.08 fold.

Consider `O=C(Nc1ccc(Cl)c(F)c1)[C@H]1CCCN(S(=O)(=O)c2cccnc2)C1` [(S)-MCG-III-116-A01], for which the fold induction at 50 µM in assay [2] amounted to 2.15. Moreover, the “Fold … (±0.05)” value in assay [3] turned out to be 0.41 fold.

Consider `CS(=O)(=O)N1CCC(C(=O)Nc2ccc(Cl)c(F)c2)CC1` [MCG-III-101], for which, in assay [2], the fold induction at 50 µM is 1.14. Moreover, the “Fold … (±0.05)” value in assay [3] was 0.21 fold.

In the case of `O=C(Nc1ccc(Cl)c(F)c1)[C@H]1CCCN(S(=O)(=O)C2CCCCC2)C1` [(S)-MCG-III-116-A03], the fold induction at 50 µM in assay [2] is 1.56. The “Fold … (±0.05)” value in assay [3] is 0.36 fold.
